According to publication PMC9629705, “Canonical strigolactones are not the major determinant of tillering but important rhizospheric signals in rice” (Science Advances, 2022):

How the values were obtained:
OsMAX1-900 = biological target: T1, OsMAX1-900 (Oryza sativa, UniProt M9R6D3); assay: LC-MS/MS enzyme assay (CL to CLA, CLA to 4DO) with microsomes of yeast overexpressing the enzyme; type: biochemical
T1 construct: gene Os01g0700900
T1 sequence (M9R6D3 1-539): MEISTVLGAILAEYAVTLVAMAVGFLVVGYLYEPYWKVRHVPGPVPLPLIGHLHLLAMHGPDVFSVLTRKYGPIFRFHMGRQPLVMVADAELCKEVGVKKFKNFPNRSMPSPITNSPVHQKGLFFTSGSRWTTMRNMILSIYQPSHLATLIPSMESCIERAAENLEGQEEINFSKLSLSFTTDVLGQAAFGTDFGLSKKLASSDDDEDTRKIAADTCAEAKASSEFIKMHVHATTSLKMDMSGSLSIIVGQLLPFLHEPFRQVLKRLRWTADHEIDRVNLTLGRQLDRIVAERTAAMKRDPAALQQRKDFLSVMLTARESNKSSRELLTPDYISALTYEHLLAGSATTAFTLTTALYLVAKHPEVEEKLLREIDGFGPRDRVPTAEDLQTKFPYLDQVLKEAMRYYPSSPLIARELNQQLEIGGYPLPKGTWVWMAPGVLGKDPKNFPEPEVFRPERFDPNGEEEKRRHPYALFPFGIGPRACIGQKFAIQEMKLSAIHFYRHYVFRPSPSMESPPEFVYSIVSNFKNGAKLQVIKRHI

OsMAX1-1400 = biological target: T2, OsMAX1-1400 (Oryza sativa, UniProt W5QV10); assay: LC-MS/MS enzyme assay (4DO to orobanchol) with microsomes of yeast overexpressing the enzyme; type: biochemical
T2 construct: gene Os01g0701400
T2 sequence (W5QV10 1-541): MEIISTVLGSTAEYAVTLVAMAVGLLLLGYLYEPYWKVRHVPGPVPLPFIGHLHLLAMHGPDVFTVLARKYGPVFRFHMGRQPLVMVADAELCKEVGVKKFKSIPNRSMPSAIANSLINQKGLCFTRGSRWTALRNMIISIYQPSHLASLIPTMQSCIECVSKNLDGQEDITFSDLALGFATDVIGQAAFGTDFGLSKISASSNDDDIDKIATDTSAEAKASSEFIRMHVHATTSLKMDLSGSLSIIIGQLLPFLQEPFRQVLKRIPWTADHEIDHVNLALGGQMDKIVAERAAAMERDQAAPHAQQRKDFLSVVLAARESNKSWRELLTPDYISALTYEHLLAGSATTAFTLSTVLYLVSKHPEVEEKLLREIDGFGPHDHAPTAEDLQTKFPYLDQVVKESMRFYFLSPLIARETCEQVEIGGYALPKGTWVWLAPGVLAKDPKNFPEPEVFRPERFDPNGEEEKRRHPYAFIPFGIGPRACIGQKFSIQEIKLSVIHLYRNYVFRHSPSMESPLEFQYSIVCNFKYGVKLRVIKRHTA

Work on `O=C(c1ccccc1)C(CCCCOc1ccccc1)n1cncn1` (centres unmarked) [TIS108] yielded an IC50 (OsMAX1-900) of 150 nM and an IC50 (OsMAX1-1400) of 20 nM.
